Assay results reported in patent US8633245B2, “PAI-1 inhibitor” (Institute of Medicinal Molecular Design, Inc., priority 2008, dated 2014).
Read-outs that look alike come from different tables or passages of the source.

Target: T1, recombinant human PAI-1 (Homo sapiens, UniProt P05121)
T1 construct: purchased Molecular Innovations, Inc
Assay: Test Example 2: human PAI-1 inhibitory activity (tPA fluorogenic substrate, pH 7.4 HEPES buffer)
Format: biochemical
Procedure: 0.1 M HEPES, 0.1 M NaCl. 1 mM EDTA. 0.1% Polyethylene glycol 8,000 (Hampton Research Corporation),
2 mM Dimethyldecylphoshine oxide [Apo-10] (Fluka Corporation)

[1] = human PAI-1, calculated from the inhibition rates
[2] = read-out: Inhibition Rate of PAI-1 Activity (%)
[3] = human PAI-1, compound concentration 0.1 μM
[4] = human PAI-1, compound concentration 0.3 μM
[5] = human PAI-1, compound concentration 1 μM
[6] = human PAI-1, compound concentration 3 μM

T1 sequence (P05121 24-402): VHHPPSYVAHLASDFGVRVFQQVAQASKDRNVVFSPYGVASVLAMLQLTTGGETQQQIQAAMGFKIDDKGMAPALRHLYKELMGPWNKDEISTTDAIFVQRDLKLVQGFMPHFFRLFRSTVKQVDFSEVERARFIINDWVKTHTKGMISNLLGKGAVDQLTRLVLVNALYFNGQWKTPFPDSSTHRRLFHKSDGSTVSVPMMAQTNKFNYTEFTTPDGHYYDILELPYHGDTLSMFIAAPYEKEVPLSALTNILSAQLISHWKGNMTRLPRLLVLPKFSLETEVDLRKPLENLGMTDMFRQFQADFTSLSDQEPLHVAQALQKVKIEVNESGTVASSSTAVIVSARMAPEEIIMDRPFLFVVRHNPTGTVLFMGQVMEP

IC50 [1]	Structure (SMILES)	other results
1350 nM	CC(C)(Oc1c(Oc2ccc(C(C)(C)C)cc2)cccc1-c1ccc(OC(F)(F)F)cc1)C(=O)O [Compound 251]	–
470 nM	CCCCCOc1cc(-c2ccc(OC(F)(F)F)cc2)cc(OCc2ccc(C(C)(C)C)cc2)c1OCC(=O)O [Compound 301]	–
1700 nM	CC(C)(C)c1ccc(Oc2ccc(-c3ccc(OC(F)(F)F)cc3)cc2OCC(=O)O)cc1 [Compound 302]	–
540 nM	CCCCC(Oc1cc(-c2ccc(OC(F)(F)F)cc2)ccc1Oc1ccc(C(C)(C)C)cc1)C(=O)O (stereo not shown) [Compound 303]	–
1230 nM	CC(C)(C)c1ccc(COc2cc(-c3ccc(OC(F)(F)F)cc3)ccc2OCC(=O)O)cc1 [Compound 304]	–
940 nM	CCCCC(Oc1ccc(-c2ccc(OC(F)(F)F)cc2)cc1Oc1ccc(C(C)(C)C)cc1)C(=O)O (stereo not shown) [Compound 305]	–
880 nM	CCCCC(Oc1cc(-c2ccc(OC(F)(F)F)cc2)ccc1OCCCCc1ccccc1)C(=O)O (stereo not shown) [Compound 306]	–
1530 nM	CCCCC(Oc1cc(-c2ccc(OC(F)(F)F)cc2)ccc1Oc1ccccc1)C(=O)O (stereo not shown) [Compound 307]	–
670 nM	CCCCC(Oc1cc(Oc2ccc(OC(F)(F)F)cc2)ccc1OCc1ccc(C(C)(C)C)cc1)C(=O)O (stereo not shown) [Compound 308]	–
660 nM	CCCCC(Oc1cc(Oc2ccc(OC(F)(F)F)cc2)ccc1OCCCCc1ccccc1)C(=O)O (stereo not shown) [Compound 309]	–
710 nM	CCCCC(Oc1ccc(-c2ccc(OC(F)(F)F)cc2)cc1OCc1ccc(C(C)(C)C)cc1)C(=O)O (stereo not shown) [Compound 310]	–
580 nM	CCCCC(Oc1ccc(-c2ccc(OC(F)(F)F)cc2)cc1OCCCCc1ccccc1)C(=O)O (stereo not shown) [Compound 311]	–
530 nM	CCCCC(Oc1cc(Oc2ccc(OC(F)(F)F)cc2)ccc1Oc1ccc(C(C)(C)C)cc1)C(=O)O (stereo not shown) [Compound 312]	–
980 nM	CCCCC(Oc1cc(-c2ccc(OC(F)(F)F)cc2)ccc1OCc1ccc(C(C)(C)C)cc1)C(=O)O (stereo not shown) [Compound 313]	–
1860 nM	CC(C)(C)c1ccc(Oc2ccc(-c3cccc(C(F)(F)F)c3)cc2OCC(=O)O)cc1 [Compound 314]	–
1780 nM	Cc1cccc(-c2ccc(Oc3ccc(C(C)(C)C)cc3)c(OCC(=O)O)c2)c1 [Compound 316]	–
650 nM	CCCCC(Oc1cc(-c2cccc(C)c2)ccc1Oc1ccc(C(C)(C)C)cc1)C(=O)O (stereo not shown) [Compound 317]	–
580 nM	CCCCC(Oc1cc(-c2cccc(C(F)(F)F)c2)ccc1Oc1ccc(C(C)(C)C)cc1)C(=O)O (stereo not shown) [Compound 318]	–
2100 nM	Cc1cccc(-c2ccc(OCC(=O)O)c(Oc3ccc(C(C)(C)C)cc3)c2)c1 [Compound 319]	–
740 nM	CCCCC(Oc1ccc(-c2cccc(C(F)(F)F)c2)cc1Oc1ccc(C(C)(C)C)cc1)C(=O)O (stereo not shown) [Compound 320]	–
600 nM	CCCCC(Oc1ccc(-c2cccc(C)c2)cc1Oc1ccc(C(C)(C)C)cc1)C(=O)O (stereo not shown) [Compound 321]	–

IC50 [1]	Structure (SMILES)	other results
740 nM	CCCCCCC(Oc1cc(-c2ccc(OC(F)(F)F)cc2)ccc1Oc1ccccc1)C(=O)O (stereo not shown) [Compound 322]	–
490 nM	CCCCCCC(Oc1cc(-c2ccc(OC(F)(F)F)cc2)ccc1Oc1ccc(C(C)(C)C)cc1)C(=O)O (stereo not shown) [Compound 323]	–
830 nM	CCCCC(Oc1cc(-c2ccc(OC(F)(F)F)cc2)ccc1OCCCCc1ccc(F)cc1)C(=O)O (stereo not shown) [Compound 324]	–
580 nM	CCCCC(Oc1cc(-c2ccc(OC(F)(F)F)cc2)ccc1OCCCCc1ccc(Cl)cc1)C(=O)O (stereo not shown) [Compound 325]	–
330 nM	CCCCCCC(Oc1cc(-c2ccc(OC(F)(F)F)cc2)ccc1Oc1ccc(OC(F)(F)F)cc1)C(=O)O (stereo not shown) [Compound 326]	–
420 nM	CCCCCCC(Oc1cc(-c2ccc(OC(F)(F)F)cc2)ccc1Oc1ccc(C(F)(F)F)cc1)C(=O)O (stereo not shown) [Compound 327]	–
1460 nM	CC(C)(C)c1ccc(Oc2ccc(-c3ccc(OC(F)(F)F)cc3)cc2OCC(=O)O)cc1 [Compound 328]	Inhibition Rate of PAI-1 Activity (%) [3]: 0%; Inhibition Rate of PAI-1 Activity (%) [4]: 14%; Inhibition Rate of PAI-1 Activity (%) [5]: 30%; Inhibition Rate of PAI-1 Activity (%) [6]: >99%
1720 nM	CC(C)(C)c1ccc(Oc2ccc(-c3cccc(OC(F)(F)F)c3)cc2OCC(=O)O)cc1 [Compound 329]	–
1030 nM	CC(C)(C)c1ccc(Oc2cc(-c3ccc(C(F)(F)F)cc3)ccc2OCC(=O)O)cc1 [Compound 330]	–
790 nM	CC(C)(C)c1ccc(Oc2cc(-c3cccc(OC(F)(F)F)c3)ccc2OCC(=O)O)cc1 [Compound 331]	–
1720 nM	CC(C)c1ccc(Oc2cc(-c3ccc(OC(F)(F)F)cc3)ccc2OCC(=O)O)cc1 [Compound 333]	–
1910 nM	CC(C)(C)c1ccc(Oc2cc(-c3ccc(OC(F)(F)F)cc3)ccc2CC(=O)O)cc1 [Compound 334]	–
2020 nM	O=C(O)COc1ccc(-c2ccc(OC(F)(F)F)cc2)cc1OCCCCc1ccccc1 [Compound 337]	–
1950 nM	CC(C)(C)OCCOc1ccc(-c2ccc(OC(F)(F)F)cc2)cc1N(CCCCc1ccccc1)C(=O)C(=O)O [Compound 351]	–
740 nM	CCCCCCCOc1ccc(-c2ccc(OC(F)(F)F)cc2)cc1N(CCCCc1ccccc1)C(=O)C(=O)O [Compound 352]	–
510 nM	CCCCCCCCOc1ccc(-c2ccc(OC(F)(F)F)cc2)cc1N(CCCCc1ccccc1)C(=O)C(=O)O [Compound 353]	–
560 nM	O=C(O)C(=O)N(CCCCc1ccccc1)c1cc(-c2ccc(OC(F)(F)F)cc2)ccc1OCCCCc1ccccc1 [Compound 354]	–
640 nM	O=C(O)C(=O)N(CCCCc1ccccc1)c1cc(-c2ccc(OC(F)(F)F)cc2)ccc1OCCCC1CCCC1 [Compound 355]	–
900 nM	CCCCCN(C(=O)C(=O)O)c1cc(-c2ccc(OC(F)(F)F)cc2)ccc1OCCCCc1ccccc1 [Compound 358]	–
–	CCCCCOc1ccc(-c2ccc(F)cc2)cc1N(CCCCc1ccccc1)C(=O)C(=O)O [Compound 359]	IC50: 1640 nM
–	CCCCCOc1ccc(-c2ccccc2)cc1N(CCCCc1ccccc1)C(=O)C(=O)O [Compound 360]	IC50: 1590 nM

IC50 [1]	Structure (SMILES)	other results
–	CCCCCOc1ccc(-c2ccc(Cl)cc2)cc1N(CCCCc1ccccc1)C(=O)C(=O)O [Compound 361]	IC50: 830 nM
–	CCCCCOc1cc(Oc2ccc(OC(F)(F)F)cc2)ccc1N(CCCCc1ccccc1)C(=O)C(=O)O [Compound 362]	IC50: 840 nM; inhibition at 3 µM [2]: > 99%
–	CCCCCOc1ccc(Oc2ccc(OC(F)(F)F)cc2)cc1N(CCCCc1ccccc1)C(=O)C(=O)O [Compound 363]	IC50: 830 nM; inhibition at 3 µM [2]: > 99%
–	CCCCCCCCCOc1ccc(-c2ccc(OC(F)(F)F)cc2)cc1N(CCCCc1ccccc1)C(=O)C(=O)O [Compound 364]	IC50: 110 nM
–	CCCCCCCCCCOc1ccc(-c2ccc(OC(F)(F)F)cc2)cc1N(CCCCc1ccccc1)C(=O)C(=O)O [Compound 365]	IC50: 110 nM
–	CCCCCOc1ccc(-c2ccc(OC(F)(F)F)cc2)cc1N(CCCCC)C(=O)C(=O)O [Compound 366]	IC50: 1060 nM
–	CCCCCOc1cc(-c2ccc(OC(F)(F)F)cc2)ccc1N(CCCCc1ccccc1)C(=O)C(=O)O [Compound 367]	IC50: 900 nM
–	O=C(O)C(=O)N(CCCCc1ccccc1)c1cc(-c2ccc(OC(F)(F)F)cc2)ccc1OC1CCCCC1 [Compound 368]	IC50: 450 nM
–	CCC(CC)Oc1ccc(-c2ccc(OC(F)(F)F)cc2)cc1N(CCCCc1ccccc1)C(=O)C(=O)O [Compound 369]	IC50: 690 nM
–	O=C(O)C(=O)N(CCCCc1ccccc1)c1cc(-c2ccc(OC(F)(F)F)cc2)ccc1N1CCCCC1 [Compound 370]	IC50: 940 nM
–	CCCCCCCOc1ccc(-c2ccc(OC(F)(F)F)cc2)cc1N(CCCCc1ccccc1)C(=O)C(=O)O [Compound 371]	IC50 (concentration that inhibits 50% of the human PAI-1 activity, calculated from Test Example 2 inhibition rates): 690 nM; Inhibition Rate of PAI-1 Activity (%) [3]: 10%; Inhibition Rate of PAI-1 Activity (%) [4]: 17%; Inhibition Rate of PAI-1 Activity (%) [5]: 93%; Inhibition Rate of PAI-1 Activity (%) [6]: 91%
–	CCCCCOc1cc(-c2ccc(OC(F)(F)F)cc2)cc(N(CCCCc2ccccc2)C(=O)C(=O)O)c1OCCCCC [Compound 372]	IC50: 460 nM
–	CC(C)(C)Oc1ccc(-c2ccc(OC(F)(F)F)cc2)cc1N(CCCCc1ccccc1)C(=O)C(=O)O [Compound 373]	IC50: 1580 nM
–	CCCCCOc1ccc(-c2ccc(OC(F)(F)F)cc2)cc1N(CCCCOc1ccccc1)C(=O)C(=O)O [Compound 374]	IC50: 880 nM; inhibition at 3 µM [2]: > 99%
–	CCCCCCCCCCCCCCCOc1ccc(-c2ccc(OC(F)(F)F)cc2)cc1N(CCCCc1ccccc1)C(=O)C(=O)O [Compound 375]	IC50: < 100 nM; inhibition at 1 µM [2]: > 99%
–	CCCCCOc1cc(-c2cccc(C)c2)ccc1N(CCCCc1ccccc1)C(=O)C(=O)O [Compound 376]	IC50: 790 nM
–	CCCCCOc1cc(-c2cccc(C(F)(F)F)c2)ccc1N(CCCCc1ccccc1)C(=O)C(=O)O [Compound 377]	IC50: 480 nM
–	CCCCCOc1ccc(-c2cccc(C(F)(F)F)c2)cc1N(CCCCc1ccccc1)C(=O)C(=O)O [Compound 378]	IC50: 620 nM
–	CCCCCOc1ccc(-c2cccc(C)c2)cc1N(CCCCc1ccccc1)C(=O)C(=O)O [Compound 379]	IC50: 640 nM

Structure (SMILES)	IC50 [1]	other results
CC(C)(C)c1ccc(Oc2cc(-c3cccc(C(F)(F)F)c3)ccc2OCC(=O)O)cc1 [Compound 315]	850 nM	inhibition at 3 µM [2]: > 99%
CC(C)(C)c1ccc(Oc2cc(-c3cccc(C(F)(F)F)c3)ccc2CCC(=O)O)cc1 [Compound 332]	1470 nM	inhibition at 3 µM [2]: > 99%
CC(C)(C)c1cccc(Oc2cc(-c3ccc(OC(F)(F)F)cc3)ccc2/C=C/C(=O)O)c1 [Compound 335]	740 nM	inhibition at 3 µM [2]: > 99%
CC(C)(C)c1cccc(Oc2cc(-c3ccc(OC(F)(F)F)cc3)ccc2CCC(=O)O)c1 [Compound 336]	1080 nM	inhibition at 3 µM [2]: > 99%
CCCCCOc1ccc(-c2ccc(OC(F)(F)F)cc2)cc1N(CCCOc1ccccc1)C(=O)C(=O)O [Compound 356]	930 nM	inhibition at 3 µM [2]: > 99%
CCCCCOc1ccc(-c2ccc(OC(F)(F)F)cc2)cc1N(CCCSc1ccccc1)C(=O)C(=O)O [Compound 357]	770 nM	inhibition at 3 µM [2]: > 99%
